The NIST ThermoML archive (doi:10.1021/je700707y)
Where “and” joins values, the source holds several entries; their conditions need not be identical. Identical values can stand only once. Numbers after ± are expanded uncertainties.

Experiments:
[1] = 101.33 kPa, Liquid, Vibrating tube method
[2] = wn = mass fraction of the nth substance listed; settings: Liquid, Vibrating tube method, w2 = 0.001

SMILES	mass density ([1]; 293.15 K)	mass density ([1]; 303.15 K)	mass density ([1]; 313.15 K)	mass density ([1]; 323.15 K)	mass density ([1]; 333.15 K)	mass density ([1]; 343.15 K)	mass density ([1]; 353.15 K) [kg/m3]	mass density ([1]; 363.15 K) [kg/m3]	mass density ([1]; 298.15 K)	also measured
CCOS(=O)(=O)[O-].CCn1cc[n+](C)c1 [1-ethyl-3-methylimidazolium ethyl sulfate]	1242.3 ± 3.9 kg/m3	1235.6 ± 3.8 kg/m3	1228.9 ± 3.8 kg/m3	1222.1 ± 3.7 kg/m3	1215.5 ± 3.7 kg/m3	1208.8 ± 3.6 kg/m3	1202.2 ± 3.6	1195.6 ± 3.6	–	–
N#CC[n+]1ccccc1.O=S(=O)([N-]S(=O)(=O)C(F)(F)F)C(F)(F)F	1636.2 ± 6.8 kg/m3	1626.2 ± 6.7 kg/m3	1616.2 ± 6.6 kg/m3	1606.4 ± 6.5 kg/m3	1596.8 ± 6.4 kg/m3	1587.3 ± 6.4 kg/m3	1577.7 ± 6.3	1568.3 ± 6.2	1631.2 ± 6.7 kg/m3	–
CCCCCCCCCCn1cc[n+](C)c1.O=S(=O)([N-]S(=O)(=O)C(F)(F)F)C(F)(F)F + O	–	–	–	–	–	–	–	–	–	mass density ([2]; 298.15 K, 100 kPa): 1275.5 ± 4.1 kg/m3
CCCCn1cc[n+](C)c1.F[B-](F)(F)F [1-butyl-3-methylimidazolium tetrafluoroborate] + O	–	–	–	–	–	–	–	–	–	mass density ([2]; 298.15 K, 100 kPa): 1197.5 ± 1.6 kg/m3
CCCC[n+]1ccn(C)c1.O=S(=O)([N-]S(=O)(=O)C(F)(F)F)C(F)(F)F	1442.7 ± 5.2 kg/m3 and 1440.2 ± 5.2 kg/m3	1433.1 ± 5.2 kg/m3 and 1430.7 ± 5.2 kg/m3	1423.5 ± 5.1 kg/m3 and 1421.2 ± 5.1 kg/m3	1414 ± 5 kg/m3 and 1411.8 ± 5 kg/m3	1404.5 ± 5 kg/m3 and 1402.4 ± 5 kg/m3	1395 ± 4.9 kg/m3 and 1393 ± 4.9 kg/m3	1383.6 ± 4.8	1374.3 ± 4.8	1437.9 ± 5.2 kg/m3	mass density ([1]; 308.15 K): 1428.3 ± 5.1 kg/m3; mass density ([1]; 318.15 K): 1418.8 ± 5.1 kg/m3; mass density ([1]; 328.15 K): 1409.3 ± 5 kg/m3; mass density ([1]; 338.15 K): 1399.7 ± 4.9 kg/m3
Cn1cc[n+](C)c1.N#C[S-] [1,3-dimethylimidazolium thiocyanate]	1160.7 ± 0.5 kg/m3	1154.2 ± 0.5 kg/m3	1147.8 ± 0.5 kg/m3	1141.4 ± 0.4 kg/m3	1135.2 ± 0.4 kg/m3	1129.1 ± 0.4 kg/m3	1123.1 ± 0.4	1117.2 ± 0.4	1157.4 ± 0.5 kg/m3	–
CCCCn1cc[n+](C)c1.F[P-](F)(F)(F)(F)F [1-butyl-3-methylimidazolium hexafluorophosphate] + O	–	–	–	–	–	–	–	–	–	mass density ([2]; 293.15 K, 101 kPa): 1367.5 ± 0.2 kg/m3; mass density ([2]; 298.15 K, 101 kPa): 1363.4 ± 0.2 kg/m3; mass density ([2]; 303.15 K, 101 kPa): 1359.2 ± 0.2 kg/m3; mass density ([2]; 308.15 K, 101 kPa): 1355.2 ± 0.2 kg/m3; mass density ([2]; 313.15 K, 101 kPa): 1351 ± 0.2 kg/m3; mass density ([2]; 318.15 K, 101 kPa): 1346.8 ± 0.2 kg/m3; mass density ([2]; 323.15 K, 101 kPa): 1342.4 ± 0.2 kg/m3; mass density ([2]; 328.15 K, 101 kPa): 1338.5 ± 0.2 kg/m3; mass density ([2]; 333.15 K, 101 kPa): 1334.4 ± 0.2 kg/m3; mass density ([2]; 338.15 K, 101 kPa): 1330.3 ± 0.2 kg/m3; mass density ([2]; 343.15 K, 101 kPa): 1326.2 ± 0.2 kg/m3
CCCC[n+]1ccn(C)c1.O=S(=O)([N-]S(=O)(=O)C(F)(F)F)C(F)(F)F + O	–	–	–	–	–	–	–	–	–	mass density ([2]; 293.15 K, 101 kPa): 1439.9 ± 5.2 kg/m3; mass density ([2]; 298.15 K, 101 kPa): 1435.1 ± 5.2 kg/m3; mass density ([2]; 303.15 K, 101 kPa): 1430.3 ± 5.1 kg/m3; mass density ([2]; 308.15 K, 101 kPa): 1425.5 ± 5.1 kg/m3; mass density ([2]; 313.15 K, 101 kPa): 1420.7 ± 5.1 kg/m3; mass density ([2]; 318.15 K, 101 kPa): 1416 ± 5 kg/m3; mass density ([2]; 323.15 K, 101 kPa): 1411.2 ± 5 kg/m3; mass density ([2]; 328.15 K, 101 kPa): 1406.5 ± 5 kg/m3; mass density ([2]; 333.15 K, 101 kPa): 1401.7 ± 4.9 kg/m3; mass density ([2]; 338.15 K, 101 kPa): 1396.9 ± 4.9 kg/m3; mass density ([2]; 343.15 K, 101 kPa): 1392.2 ± 4.9 kg/m3
CCCCCCCCCCCCCC[P+](CCCCCC)(CCCCCC)CCCCCC.O=S(=O)([N-]S(=O)(=O)C(F)(F)F)C(F)(F)F + O	–	–	–	–	–	–	–	–	–	mass density ([2]; 298.15 K, 100 kPa): 1060.1 ± 2.8 kg/m3
CCCCn1cc[n+](C)c1.F[P-](F)(F)(F)(F)F [1-butyl-3-methylimidazolium hexafluorophosphate]	1369.8 ± 0.2 kg/m3 and 1368.1 ± 0.2 kg/m3	1361.6 ± 0.2 kg/m3 and 1360 ± 0.2 kg/m3	1353.3 ± 0.2 kg/m3 and 1351.8 ± 0.2 kg/m3	1345.1 ± 0.2 kg/m3 and 1343.5 ± 0.2 kg/m3	1336.9 ± 0.2 kg/m3 and 1335.2 ± 0.2 kg/m3	1328.6 ± 0.2 kg/m3 and 1327 ± 0.2 kg/m3	–	–	1365.7 ± 0.2 kg/m3 and 1364.1 ± 0.2 kg/m3	mass density ([1]; 308.15 K): 1357.4 ± 0.2 kg/m3 and 1355.7 ± 0.2 kg/m3; mass density ([1]; 318.15 K): 1349.2 ± 0.2 kg/m3 and 1347.5 ± 0.2 kg/m3; mass density ([1]; 328.15 K): 1341 ± 0.2 kg/m3 and 1339.4 ± 0.2 kg/m3; mass density ([1]; 338.15 K): 1332.7 ± 0.2 kg/m3 and 1331.1 ± 0.2 kg/m3
C[N+]1(CC#N)CCCC1.O=S(=O)([N-]S(=O)(=O)C(F)(F)F)C(F)(F)F	1545.4 ± 6 kg/m3	1533.1 ± 5.9 kg/m3	1523.8 ± 5.9 kg/m3	1514.5 ± 5.8 kg/m3	1505.5 ± 5.7 kg/m3	1496.7 ± 5.7 kg/m3	1487.8 ± 5.6	1479 ± 5.5	1537.8 ± 6 kg/m3	–
